From article PMC12516379, “Rotamer-Controlled Self-Immolative Linkers Enable Tunable Release of Neurosteroid Oxime Prodrugs” (ACS Medicinal Chemistry Letters, 2025)

Assay: Aqueous solubility by visual inspection in acetate buffer (pH 5)
Details: sodium acetate buffer, pH 5, aqueous buffer, thermodynamic from solid
Protocol: For the solubility assessment, acetate buffer (pH 5) was selected as the media of choice to ensure prodrug stability during analysis.
High aqueous solubility was determined by visual inspection of 5 mg solid material in 0.5 mL
sodium acetate buffer solution. This media was selected to ensure stability of prodrugs during
dissolution in 50 mg/mL aqueous media.

CNCCN(C)C(=O)O/N=C(\C)[C@H]1CC[C@H]2[C@@H]3CCC4=CC(=O)CC[C@]4(C)[C@H]3CC[C@]12C [20a]
solubility: > 10000 µg/mL
